Measured values reported in paper PMC7898822, “RNA‐PROTACs: Degraders of RNA‐Binding Proteins” (Angewandte Chemie (International Ed. in English), 2020).
pKd: −log10 of the molar value. Oligonucleotides are written 5' to 3', each unit as a sugar letter and its base; * is a phosphorothioate linkage, no mark a phosphodiester; rarer units and linkages stand in square brackets, end groups in braces. Plain capitals give the bases only. {FAM} = fluorescein (FAM) label; r = 2'-OH (RNA)

Key:
myc-Lin28A = assay: Ubiquitination assay of myc-Lin28A in 22Rv1 cells; type: cell-based; conditions: HA-Ub co-transfected, 500 nM, 48 h, anti-HA western blot after cMyc IP
Method: (§1) Next, we investigated the ability of ORN3P1 and ORN7P1 to mediate ubiquitination of Lin28 in cells, using a previously described protocol. ^[32] Cells from the prostate cancer cell line 22RV1, which express very low levels of Lin28, were co‐transfected with two plasmids expressing pCMV‐myc‐Lin28A and HA‐tagged polyubiquitin (HA‐Ub).
(§2) After 48 h of incubation with ORN3P1 and ORN7P1, the tagged Lin28 (and the control QKI) was immunoprecipitated using an anti‐Myc antibody. The isolated protein was then analyzed by western blotting using the anti‐HA and anti‐c‐Myc antibodies. Consistent with other previously described PROTAC reagents,[ ^32 , ^33 ]
(§3) The protein extracts (12-17 µg) were run on a 4-20% SDS-PAGE and transferred on a nitrocellulose blotting membrane 0.22 µm (GE Healthcare) using the Trans-Blot transfer device (Biorad). Membranes were blocked with 5% milk and incubated with the primary antibody overnight at 4 °C. Membranes were washed with 0.05% PBS-T and reacted with the secondary antibody for 1 h in 5% milk. The proteins were detected using the anti-lin28a antibody (Cell Signaling technology, D9F5), anti-lin28b antibody (Cell Signaling technology, 4196S), anti-rbfox1 (NovusBio, NBP2-13169SS), at 1:1000 and anti-hrnp c antibody […]
(§4) (Abcam, AB133607) at 1:10000 dilutions. […]
(§5) on a ChemiDoc MP imager (Biorad). The intensity of the signal was quantified using the ImageJ-Fiji software. […]

Lin28A [1] = assay: Western blot of Lin28A in NT2/D1 cells; type: cell-based, human; conditions: 2 μM, three independent experiments
Excerpt: Finally, we tested RNA‐PROTACs for their ability to degrade their target in two cell lines: the embryonic NT2/D1 cell line, which expresses high levels of Lin28A, ^[13a] and K562 cells which express Lin28A and Lin28B. […] Finally, we co‐treated K562 cells with ORN3P1 and MG132, a reversible inhibitor of the 26S proteasome. […] In order to explore the versatility of RNA‐PROTACs with non peptide‐based VHL ligands, we conjugated small‐molecule VH032 ^[38] to ORN3 via an amino linker to yield ORN3VH032 (Figure S1). […]

Lin28A [2] = assay: Pull-down RNA ELISA, gymnosis, anti-Lin28A; type: cell-based, human; conditions: 3'-biotin conjugates, K562 cells, 2 µM, 24 h; streptavidin plate; vs mock or FUS antibody
Excerpt: Humans express two paralogs of the protein, LIN28 (Lin28A) and LIN28B (Lin28B), that play key roles in development, metabolism, and pluripotency. ^[34] Lin28 proteins are abundantly expressed during embryonic development, as well as in several tumors and tumor‐derived cell lines. ^[35] […] In order to confirm that RNA‐PROTACs bind to endogenous Lin28 in cells, we performed a pull‐down RNA ELISA assay that we have previously described. ^[36] Thus, we conjugated a biotin group to the 3′ ends of ORN3P1 and ORN7P1 and added these reagents separately on to myelogenous leukemia K562 cells. We incubated lysates from treated cells on streptavidin‐coated plates so as to capture the RNA‐PROTACs present in the cell lysates. We then assayed for the presence of Lin28A in the plates using an anti‐Lin28A antibody and a negative control anti‐FUS antibody. […]
as §3, with “Membranes were blocked with 5% milk and incubated with the primary antibody overnight at 4 °C. Membranes were washed with 0.05% PBS-T and reacted with the secondary antibody for 1 h in 5% milk.” left out
as §5

Lin28_ZKD [3] = molecular target: T1, Lin28_ZKD (Homo sapiens, UniProt Q9H9Z2); assay: Fluorescence polarization competition assay (displacement of let7FAM from Lin28_ZKD); type: binding; conditions: competition FP, conjugate vs parent
T1 construct: construct encoding amino acids 124–186 of human Lin28; His6; made in house; host or cells: Escherichia coli BL21 (DE3) Codon+ (RIL)
T1 sequence (Q9H9Z2 124-186): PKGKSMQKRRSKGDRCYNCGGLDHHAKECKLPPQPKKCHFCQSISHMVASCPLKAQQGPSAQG
Method: (§6) Fluorescence Polarization Assay. Fluorescence polarization titration assay was carried out by titrating Lin28_ZKD protein into FAM-labeled PreE-let-7 at a 10 nM final concentration and buffer (10 mM HEPES, 150 mM NaCl, 10 µM ZiCl2, pH 7,4). The assay plate was briefly vortexed, and air bubbles were removed by spinning at 1000 rpm. The fluorescence anisotropy was measured on a Spectra Max Paradigm multimode plate reader (Molecular Devices). The fluorescence polarization competition […]
preE-let-7. The concentration of Lin28_ ZKD is kept at 40 nM, a value in the range of the dissociation constant of Lin28_ZKD and preE-let-7 determined through fluorescence polarization titration assay, whereas preE-let-7 concentration is kept constant at 10 nM. FP competitive binding assays were performed on 384-well plates (#3575, Corning) with a total well volume of 10 µL.
(§7) Fluorescence polarization readings were transferred into Prism 7.0 (GraphPad). All fluorescence polarization assays were repeated at least three times and the anisotropy values fitted using GraphPad Prism software using 1:1 binding/inhibition model. […]

QKI (pDEST-Myc-QKI) = assay: Ubiquitination assay of Myc-QKI (negative control RBP) in 22Rv1 cells; type: cell-based; conditions: pDEST-Myc-QKI and HA-Ub, 500 nM, 48 h
Method: as §1, §2, §3, §4, §5

Lin28_ZKD [4] = molecular target: T1, Lin28_ZKD; assay: Fluorescence polarization titration, Lin28_ZKD binding to preE-let-7f-1-FAM; conditions: Lin28_ZKD titrated into FAM-labeled preE-let-7, 10 nM; 10 mM HEPES, 150 mM NaCl, pH 7.4; read-out: K D of the Lin28_ZKD/let7FAM interaction
Method: as §6, with “Devices).” for “Devices). The fluorescence polarization competition”
as §7

Molecule: CC[C@H](C)[C@H](NC(=O)[C@H](Cc1ccc(O)cc1)NC(=O)[C@@H]1C[C@@H](O)CN1C(=O)[C@H](C)NC(=O)[C@H](CC(C)C)NC(=O)CCCCCNC(=O)[C@@H](N)CSC1CC(=O)N(CCOP(=O)(S)OC[C@H]2O[C@@H](n3cnc4c(N)ncnc43)[C@H](OCCOC)[C@@H]2OP(=O)(S)OC[C@H]2O[C@@H](n3cnc4c(=O)[nH]c(N)nc43)[C@H](OCCOC)[C@@H]2OP(=O)(S)OC[C@H]2O[C@@H](n3cnc4c(=O)[nH]c(N)nc43)[C@H](OCCOC)[C@@H]2OP(=O)(S)OC[C@H]2O[C@@H](n3cnc4c(N)ncnc43)[C@H](OCCOC)[C@@H]2OP(=O)(S)OC[C@H]2O[C@@H](n3cnc4c(=O)[nH]c(N)nc43)[C@H](OCCOC)[C@@H]2OP(=O)(S)OC[C@H]2O[C@@H](n3cnc4c(N)ncnc43)[C@H](OCCOC)[C@@H]2OP(=O)(S)OC[C@H]2O[C@@H](n3cc(C)c(=O)[nH]c3=O)[C@H](OCCOC)[C@@H]2OP(=O)(S)OC[C@H]2O[C@@H](n3cnc4c(N)ncnc43)[C@H](OCCOC)[C@@H]2OP(=O)(S)OC[C@H]2O[C@@H](n3cnc4c(N)ncnc43)[C@H](OCCOC)[C@@H]2OP(=O)(S)OC[C@H]2O[C@@H](n3cc(C)c(N)nc3=O)[C@H](OCCOC)[C@@H]2OP(=O)(S)OC[C@H]2O[C@@H](n3cc(C)c(=O)[nH]c3=O)[C@H](OCCOC)[C@@H]2O)C1=O)C(=O)O (stereo partly drawn) [ORN7P1]
- ubiquitination of myc-Lin28A (myc-Lin28A): showed a smear on the gel towards higher molecular weight
- reduction of Lin28A (Lin28A [1]): ~50%
- Lin28A pull-down signal (Lin28A [2]): strong signal for Lin28A protein
- competition for Lin28_ZKD relative to parent unconjugated oligonucleotides (Lin28_ZKD [3]): competed slightly more strongly
- ubiquitination of QKI (QKI (pDEST-Myc-QKI)): showed no such effects

Molecule: Let7FAM: FAM_GGGGUAGUGAUUU UACCCUGUUCAGGAGAU, PO-RNA; fluorescent probe ({FAM}-rGrGrGrGrUrArGrUrGrArUrUrUrUrArCrCrCrUrGrUrUrCrArGrGrArGrArU)
- pKd (Lin28_ZKD [4]): 7.57
